Tests used:
[1] = test system: dextran-labeled vesicles carrying MHC class II molecules in astrocytes; assay: Mobility of Alexa Fluor 546 dextran-labeled MHC class II vesicles in control and IFNγ activated astrocytes; format: cell-based; settings: for average vesicle maximal displacement / average vesicle track length: FIG. 4
Source text: (§1) Cell organelles are stained by commercially available dyes and/or by cell transfection. E.g. peptidergic secretory vesicles are labeled by cell transfection for the secretory peptide—pro-atrial natriuretic peptide tagged with emerald green fluorescent protein (ANP.emd; see Han et al., Proc Natl Acad Sci USA. 1999; 96:14577-14582; Krian et al., J. Neurosci. 2003; 23(5):1580-3.). Glutamatergic vesicles are stained by cell transfection for vesicular glutamate transporter 1 tagged with green fluorescent protein (VGLUT1-GFP). ATP containing vesicles are stained by incubation of cells in quinacrine dihydrochloride (1 μM, 15 min at room temperature) (Pangrsic et al., J Biol. Chem. 2007; 28; 282(39):28749-58) and endosomes/lysosomes by incubation of cells in LysoTracker Red DND-99 (200 nM, 5 min, RT, Invitrogen) (Potokar et al., Glia. 2010; 58(10):1208-19). To observe MHC class II expression cells are loaded with 0.1 mg/ml Alexa Fluor^546 dextran (Molecular Probes, Invitrogen) for 16 hours at 37° C.
Cell cultures are treated with the biologically active substances (i.e. constituents of sera, cerebrospinal fluid and other biologically relevant small inorganic and organic substances, other related substances and mixtures of these), or with the reference standard compound, which consists of FTY720 and FTY720-phosphate (FTY720-P) in ratio from 1:0.1 to 1:100, dissolved in cell culture medium for 10 min at 18-37° C. To observe augmentation of the MHC class II molecule expression, cells are treated with interferon gamma (IFN-γ) for 48 hours at 37° C. or any other stimulant of the antigen presentation.
(§2) Cell loaded coverslips are then rinsed with extracellular solution (consisting of 10 mM HEPES/NaOH (pH 7.2), 10 mM D-glucose, 130 mM NaCl, 2 mM CaCl2, 2 mM MgCl2, and 5 mM KCl) and observed by fluorescence microscopy at 63× or 100× magnification using 488 nm Ar—Ion laser excitation (for ANP.emd, VGLUT1-GFP and quinacrine dihydrochloride) or 543 nm He—Ne laser exitation (for LysoTracker Red DND-99, Alexa Fluor^546 dextran), and band-pass filtered at 505-530 nm or long-pass filtered at 560 nm. Time-lapse fluorescence images are acquired at 0.5-2 Hz for 1-10 minutes to monitor vesicle mobility.
Cells can be stimulated with adenosine triphosphate (ATP) or any other stimulus of exocytotic release to record vesicle mobility and secretion before and after cell stimulation.
(§3) Vesicle traffic is analyzed by particle tracking software previously described (Potokar et al.; Biochem Biophys Res Commun. 2005; 329(2):678-83).
(§4) Several mobility parameters are determined for variable time epochs typically lasting 10-60 seconds: step length (displacement of a vesicle within the two successive frames), speed, track length (TL; the total path traveled by a vesicle within the defined time epoch), the vesicle maximal displacement (MD; a measure for the net translocation of a vesicle within the defined time epoch; cf. Wacker et al., J Cell Sci 110 (Pt 13):1453-63), the angle of MD and the directionality index (DI; the ratio of MD to TL).
The example of vesicle mobility modulation in relation to the antigen presentation in IFNγ activated astrocytes. […] Therefore the mobility analysis of dextran-labeled vesicles can be applied to describe the modulated mobility of the vesicles carrying MHC class II molecules upon stimulation of antigen presentation in astrocytes. […]

[2] = test system: secretory vesicles in transfected astrocytes expressing ANP.emd; assay: Mobility of fluorescently labeled (ANP.emd) secretory vesicles in cultured astrocytes, particle tracking of time-lapse fluorescence images; format: cell-based, rat; settings: for mean vesicle track length (TL) / mean vesicle maximal displacement (MD): 10 μM sphingosine, versus standard reference compound (Stand), 15 s epochs; for mean vesicle track length (TL): FIG. 2E; for mean vesicle maximal displacement (MD): FIG. 2F
Procedure: Cultured astrocytes, e.g. isolated as previously described by Schwartz & Wilson (Glia. 1992; 5(1):75-80) or any other cell type isolated from animal tissues or clonal cell lines derived from human or animal sources are seeded onto coverslips and maintained in an adequate cell cultured medium.
as §1
Cell cultures are treated with the biologically active substances (i.e. constituents of sera, cerebrospinal fluid and other biologically relevant small inorganic and organic substances, other related substances and mixtures of these), or with the reference standard compound, which consists of FTY720 and FTY720-phosphate (FTY720-P) in ratio from 1:0.1 to 1:100, dissolved in cell culture medium for 10 min at 18-37° C. […]
as §2, §3, §4
Example of the analysis of biologically active substances, such as sphingosine and immunoglobulin G (IgG) from human serum, on the mobility of secretory vesicles with respect to the effect of the standard compound, which is also the subject of the present invention. The example is shown in FIGS. 2E and F. The mobility of fluorescently labeled vesicles in transfected astrocytes expressing ANP.emd was analyzed by particle analyzing program Track2 and quantitative parameters of vesicle mobility were determined. […]

[3] = test system: MHC class II molecules in astrocytes; assay: MHC class II expression in astrocytes by immunostaining and fluorescence microscopy; format: cell-based; settings: IFNγ treated versus control astrocytes; overlay with dextran loaded structures; FIG. 3
Source text: as §1, with “C. […]” for “C.”

[4] = cell stimulation with 1 mM ATP, control and IFNγ treated cells
[5] = IFNγ treated astrocytes versus non-treated control cells (Spon.)

Nc1ncnc2c1ncn2[C@@H]1O[C@H](COP(=O)(O)OP(=O)(O)OP(=O)(O)O)[C@@H](O)[C@H]1O [ATP, adenosine triphosphate]
average vesicle maximal displacement [1, 4]: reduces
average vesicle track length [1, 4]: reduces

CCCCCCCCCCCCC/C=C/[C@@H](O)[C@@H](N)CO [sphingosine]
mean vesicle track length (TL) [2]: significantly attenuates
mean vesicle track length (TL) ([2]; listed as Sphingosine): strongly attenuates
mean vesicle maximal displacement (MD) [2]: significantly attenuates
mean vesicle maximal displacement (MD) ([2]; listed as Sphingosine): strongly attenuates
vesicle mobility ([2]; dependence on extracellular concentration, regions near the plasmalemma and deeper in the cytoplasm): dose-dependently attenuated

B1: IFNγ: cytokine interferon gamma (protein, UniProt P01579 24-161, looked up)
Interferon gamma: QDPYVKEAENLKKYFNAGHSDVADNGTLFLGILKNWKEESDRKIMQSQIVSFYFKLFKNFKDDQSIQKSVETIKEDMNVKFFNSNKKKRDDFEKLTNYSVTDLNVQRKAIHELIQVMAELSPAAKTGKRKRSQMLFRG
average vesicle maximal displacement [1, 5]: significantly increase
average vesicle track length [1, 5]: significantly increase
mobility, in particular long-range mobility, of MHC class II-positive vesicles ([1]; astrocytes exposed to interferon-γ): enhanced
expression of MHC class II molecules [3]: induces

From patent publication US20140178892A1, “SCREENING METHODS BASED ON VESICLE MOBILITY” (priority 2011, published 2014)
